From paper PMC9516332 (Frontiers in Oncology, 2022) come the findings set out here.

Holding throughout (test): Kinase panel profiling at 1 µmol/L (MSA or IMAP), percentage inhibition
Assay type in all cases: biochemical

In test [1] the target is T1, panel of 255 wild-type kinases (Homo sapiens, UniProt O15146).
T1 sequence (O15146 24-869): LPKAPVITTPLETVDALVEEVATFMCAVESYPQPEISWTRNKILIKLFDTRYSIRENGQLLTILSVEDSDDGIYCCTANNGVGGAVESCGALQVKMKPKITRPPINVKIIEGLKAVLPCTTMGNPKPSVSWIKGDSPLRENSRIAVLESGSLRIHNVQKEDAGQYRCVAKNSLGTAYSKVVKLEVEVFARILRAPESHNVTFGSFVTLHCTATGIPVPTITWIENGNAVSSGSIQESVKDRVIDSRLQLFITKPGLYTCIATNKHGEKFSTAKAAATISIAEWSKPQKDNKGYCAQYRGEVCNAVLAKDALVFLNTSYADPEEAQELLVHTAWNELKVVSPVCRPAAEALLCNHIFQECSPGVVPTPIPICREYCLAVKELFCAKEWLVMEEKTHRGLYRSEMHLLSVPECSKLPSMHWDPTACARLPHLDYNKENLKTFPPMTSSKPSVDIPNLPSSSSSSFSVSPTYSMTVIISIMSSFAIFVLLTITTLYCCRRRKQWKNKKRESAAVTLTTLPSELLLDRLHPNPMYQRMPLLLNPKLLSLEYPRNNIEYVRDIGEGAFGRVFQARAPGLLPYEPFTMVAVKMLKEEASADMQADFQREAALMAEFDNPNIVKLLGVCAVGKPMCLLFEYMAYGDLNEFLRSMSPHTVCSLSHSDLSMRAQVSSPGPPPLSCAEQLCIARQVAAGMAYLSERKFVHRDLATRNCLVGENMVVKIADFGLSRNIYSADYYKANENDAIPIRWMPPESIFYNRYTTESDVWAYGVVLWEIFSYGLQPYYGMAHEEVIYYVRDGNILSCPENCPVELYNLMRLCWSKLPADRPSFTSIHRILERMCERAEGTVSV
The conditions noted are these: MUSK; 1 µmol/L single concentration; read-out: %-inhibition, MUSK.

The target of test [2] is panel of 255 wild-type kinases (Homo sapiens, UniProt Q13882). The conditions noted are these: BRK kinase assay; 1 µmol/L single concentration; read-out: %-inhibition BRK.
Test [3] deals with panel of 255 wild-type kinases (Homo sapiens, UniProt P05771). The note with it: kinase PKCβ1; 1 µmol/L single concentration; read-out: %-inhibition at 1 µmol/L, PKCβ1.
Test [4] concerns panel of 255 wild-type kinases.
Test [5] deals with T2, panel of 255 wild-type kinases (Homo sapiens, UniProt P54753).
T2 sequence (P54753 34-998): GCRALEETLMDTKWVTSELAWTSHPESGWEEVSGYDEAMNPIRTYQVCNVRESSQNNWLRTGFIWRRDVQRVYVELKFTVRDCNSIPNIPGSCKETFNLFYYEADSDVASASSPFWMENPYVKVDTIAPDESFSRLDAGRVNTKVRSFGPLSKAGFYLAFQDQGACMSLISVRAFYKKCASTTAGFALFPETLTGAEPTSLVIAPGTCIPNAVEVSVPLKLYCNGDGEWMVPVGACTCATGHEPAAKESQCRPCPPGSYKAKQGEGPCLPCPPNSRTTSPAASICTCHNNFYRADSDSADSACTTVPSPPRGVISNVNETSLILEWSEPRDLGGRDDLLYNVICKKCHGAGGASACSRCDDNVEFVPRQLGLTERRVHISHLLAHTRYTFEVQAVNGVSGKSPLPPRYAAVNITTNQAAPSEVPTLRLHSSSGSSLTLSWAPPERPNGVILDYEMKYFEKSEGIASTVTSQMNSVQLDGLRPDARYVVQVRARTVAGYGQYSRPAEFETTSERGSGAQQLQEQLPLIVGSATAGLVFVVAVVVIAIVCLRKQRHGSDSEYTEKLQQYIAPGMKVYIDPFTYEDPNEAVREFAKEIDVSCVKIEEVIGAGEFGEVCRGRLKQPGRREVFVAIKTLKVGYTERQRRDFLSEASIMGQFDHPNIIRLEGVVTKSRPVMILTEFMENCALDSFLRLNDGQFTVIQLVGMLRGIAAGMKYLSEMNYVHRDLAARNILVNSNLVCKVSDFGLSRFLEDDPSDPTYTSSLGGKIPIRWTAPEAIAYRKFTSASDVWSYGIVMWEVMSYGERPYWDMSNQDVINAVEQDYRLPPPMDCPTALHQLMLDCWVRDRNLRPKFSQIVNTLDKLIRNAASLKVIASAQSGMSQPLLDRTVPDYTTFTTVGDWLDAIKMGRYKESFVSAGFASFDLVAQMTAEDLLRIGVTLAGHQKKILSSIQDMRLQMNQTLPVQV
The note with it: kinase EPHB3; 1 µmol/L single concentration; read-out: %-inhibition at 1 µmol/L, EPHB3.

Test [6] concerns the target panel of 255 wild-type kinases (Homo sapiens, UniProt P09769). The note with it: kinase FGR; 1 µmol/L single concentration; read-out: %-inhibition at 1 µmol/L, FGR.
The mark [7] stands for this setting: kinase FYN [isoform b], 1 µmol/L single concentration.
[8] abbreviates: kinase LYNb, 1 µmol/L single concentration.
Where [9] appears, read: kinase PKCβ2, 1 µmol/L single concentration.
Setting [10] is: kinase SRM, 1 µmol/L single concentration.

Like-named read-outs stand apart in the source and are kept apart here.

As to `CN1CCN(c2ccc(C(=O)Nc3n[nH]c4ccc(Cc5cc(F)cc(F)c5)cc34)c(NC3CCOCC3)c2)CC1` [entrectinib], the inhibition at 1 µM was 100% in test [1]; 88% in test [2]; 12% in test [3]; 8% in test [5]; 95% in test [6]. Moreover, the “%-inhibition at 1 µmol/L, FYN [isoform b]” value (shortened to “%-inhibition … [isoform b]”) in test [4] worked out at 95%. Further, the “%-inhibition at 1 µmol/L, LYNb” value in test [4] came out at 72%. Besides, the “%-inhibition at 1 µmol/L, PKCβ2” value in test [4] turned out to be 14%. The “%-inhibition at 1 µmol/L, SRM” value in test [4] came out at 72%. Further, the “number of the 255 profiled kinases inhibited by more than 50%” value in test [4] is 75.
With `CCc1nc(C(N)=O)c(Nc2ccc(N3CCC(N4CCN(C)CC4)CC3)c(OC)c2)nc1NC1CCOCC1` [gilteritinib], the inhibition at 1 µM came to 99% in test [1]; 98% in test [2]; 19% in test [3]; 8% in test [5]; 96% in test [6]. The “%-inhibition … [isoform b]” value in test [4] (setting [7]) is recorded as 86%. Further, the “%-inhibition at 1 µmol/L, LYNb” value in test [4] (setting [8]) is given as 84%. For the same molecule, the “%-inhibition at 1 µmol/L, PKCβ2” value in test [4] (setting [9]) is on record as 31%. For the same molecule, the “%-inhibition at 1 µmol/L, SRM” value in test [4] (setting [10]) was found to be 23%.
As for `CCN1CCN(c2ccc(Nc3cc(N(C)C(=O)Nc4c(Cl)c(OC)cc(OC)c4Cl)ncn3)cc2)CC1` [infigratinib], the inhibition at 1 µM in test [1] was 24%; in test [2] it was 5.46%; in test [3] it was 5%; in test [5], -1%; in test [6], 46%. Moreover, the “%-inhibition … [isoform b]” value in test [4] (setting [7]) was determined as 43%. Besides, the “%-inhibition at 1 µmol/L, LYNb” value in test [4] (setting [8]) is given as 84%. Besides, the “%-inhibition at 1 µmol/L, PKCβ2” value in test [4] (setting [9]) came to 1.5%. For the same molecule, in test [4] (setting [10]), the “%-inhibition at 1 µmol/L, SRM” value is given as -2.75%.
On to `O=C(Nc1cnn2ccc(N3CCC[C@@H]3c3cc(F)ccc3F)nc12)N1CC[C@H](O)C1` [larotrectinib], for which the inhibition at 1 µM was 32% in test [1]; 4.64% in test [2]; -2.11% in test [3]; -0.506% in test [5]; 2.55% in test [6]. Moreover, in test [4] (1 µmol/L inhibitor), the “kinases inhibited by more than 50%” value was “TRKA, TRKB, TRKC, ROS1, and ACK1”. Besides, the “%-inhibition … [isoform b]” value in test [4] (setting [7]) was 1.64%. In test [4] (setting [8]), the “%-inhibition at 1 µmol/L, LYNb” value was 1.48%. The “%-inhibition at 1 µmol/L, PKCβ2” value in test [4] (setting [9]) is given as -2%. Further, the “%-inhibition at 1 µmol/L, SRM” value in test [4] (setting [10]) is reported as -3.2%.
On to `C[C@H]1Oc2cc(cnc2N)-c2c(nn(C)c2C#N)CN(C)C(=O)c2ccc(F)cc21` [lorlatinib], for which the inhibition at 1 µM in test [1] was 47%; in test [2] it was 63%; in test [3] it was 7%; in test [5], 13%; in test [6], 22%. In addition, in test [4] (setting [7]), the “%-inhibition … [isoform b]” value turned out to be 4%. In addition, the “%-inhibition at 1 µmol/L, LYNb” value in test [4] (setting [8]) turned out to be 22%. Further, the “%-inhibition at 1 µmol/L, PKCβ2” value in test [4] (setting [9]) was 4%. In test [4] (setting [10]), the “%-inhibition at 1 µmol/L, SRM” value turned out to be 59%.
Regarding `CCN1C(=O)N(c2c(F)c(OC)cc(OC)c2F)Cc2cnc3[nH]c(CN4CCOCC4)cc3c21` [pemigatinib], the inhibition at 1 µM in test [1] is 2.72%; in test [2], 11%; in test [3] it was 0.544%; in test [5], -2.52%; in test [6], 17%. Also, in test [4] (setting [7]), the “%-inhibition … [isoform b]” value is reported as 14%. Besides, the “%-inhibition at 1 µmol/L, LYNb” value in test [4] (setting [8]) turned out to be 64%. Also, in test [4] (setting [9]), the “%-inhibition at 1 µmol/L, PKCβ2” value is -1.57%. Further, the “%-inhibition at 1 µmol/L, SRM” value in test [4] (setting [10]) is recorded as -3.44%.
With `FC(F)(F)c1ccc(CNc2ccc(Cc3c[nH]c4ncc(Cl)cc34)cn2)cn1` [pexidartinib], the inhibition at 1 µM is 33% in test [1]; 15% in test [2]; 4.22% in test [3]; -7% in test [5]; 5.64% in test [6]. Further, the “%-inhibition … [isoform b]” value in test [4] (setting [7]) was found to be 1.3%. Also, in test [4] (setting [8]), the “%-inhibition at 1 µmol/L, LYNb” value is given as 19%. The “%-inhibition at 1 µmol/L, PKCβ2” value in test [4] (setting [9]) was 3.47%. Moreover, the “%-inhibition at 1 µmol/L, SRM” value in test [4] (setting [10]) worked out at 0.409%.
For the molecule `CO[C@]1(C(=O)N[C@@H](C)c2ccc(-n3cc(F)cn3)nc2)CC[C@H](c2nc(C)cc(Nc3cc(C)[nH]n3)n2)CC1` [pralsetinib], the inhibition at 1 µM in test [1] was 73%; in test [2], 49%; in test [3], 2.58%; in test [5], -0.435%; in test [6] it was 81%. In test [4] (1 µmol/L inhibitor), the “number of the 255 profiled kinases inhibited by more than 50%” value amounted to 71. Besides, the “%-inhibition … [isoform b]” value in test [4] (setting [7]) was 30%. The “%-inhibition at 1 µmol/L, LYNb” value in test [4] (setting [8]) amounted to 89%. Further, the “%-inhibition at 1 µmol/L, PKCβ2” value in test [4] (setting [9]) is on record as -1.78%. Moreover, the “%-inhibition at 1 µmol/L, SRM” value in test [4] (setting [10]) is 13%.
In the case of `CCn1c(=O)c(-c2cc(NC(=O)Nc3ccccc3)c(F)cc2Br)cc2cnc(NC)cc21` [ripretinib], the inhibition at 1 µM in test [1] was found to be 11%; in test [2] it was 36%; in test [3], 1.06%; in test [5] it was 59%; in test [6] it was 50%. Further, the “%-inhibition … [isoform b]” value in test [4] (setting [7]) was determined as 33%. In test [4] (setting [8]), the “%-inhibition at 1 µmol/L, LYNb” value was 85%. The “%-inhibition at 1 µmol/L, PKCβ2” value in test [4] (setting [9]) is given as -0.488%. Besides, the “%-inhibition at 1 µmol/L, SRM” value in test [4] (setting [10]) is listed as 32%.
With `COc1ccc(CN2C3CC2CN(c2ccc(-c4cc(OCC(C)(C)O)cn5ncc(C#N)c45)cn2)C3)cn1` [selpercatinib], the inhibition at 1 µM is 10% in test [1]; 19% in test [2]; -0.445% in test [3]; -0.598% in test [5]; 51% in test [6]. For the same molecule, the “number of the 255 profiled kinases inhibited by more than 50%” value in test [4] (1 µmol/L inhibitor) is 46. Further, the “%-inhibition … [isoform b]” value in test [4] (setting [7]) is on record as 10%. In addition, the “%-inhibition at 1 µmol/L, LYNb” value in test [4] (setting [8]) is reported as 52%. Further, in test [4] (setting [9]), the “%-inhibition at 1 µmol/L, PKCβ2” value was -1.06%. In test [4] (setting [10]), the “%-inhibition at 1 µmol/L, SRM” value is given as -1.55%.
Consider `Cn1cnc2c(F)c(Nc3ccc(Br)cc3Cl)c(C(=O)NOCCO)cc21` [selumetinib], for which the inhibition at 1 µM was 7% in test [1]; 6% in test [2]; 2.44% in test [3]; -3% in test [5]; -0.332% in test [6]. In test [4] (setting [7]), the “%-inhibition … [isoform b]” value is listed as -1.85%. The “%-inhibition at 1 µmol/L, LYNb” value in test [4] (setting [8]) worked out at 7%. Also, the “%-inhibition at 1 µmol/L, PKCβ2” value in test [4] (setting [9]) is -2%. Further, the “%-inhibition at 1 µmol/L, SRM” value in test [4] (setting [10]) is listed as -1.41%.
